Some test systems named below: TK-10 renal; K-562 leukemia; PC-3 prostate; OVCAR-3 ovarian; NCI-H23 lung; SNB-75 CNS; HCT-116 colon; SF-539 CNS; MCF7 breast; MALME-3M melanoma.
What all share (assay): NCI tumour cell line growth inhibition, 48 h

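All cell lines were grown in 96-well plates and treated with compound for 48 hours. GI50 = concentration required for 50% inhibition of growth. TGI marks complete inhibition of growth.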

For the molecule `BrCc1ccc(CBr)cc1`, the GI50 with TK-10 renal is 1.58 µM; in the test on K-562 leukemia, 7.1 µM; in the test on PC-3 prostate it was 5.3 µM; with OVCAR-3 ovarian it was 4.1 µM; in the test on NCI-H23 lung, 10.7 µM; with SNB-75 CNS, 18.8 µM. Besides, the GI50 in the test on HCT-116 colon was 5.4 µM; in the test with SF-539 CNS it was 3.02 µM; in the test with MCF7 breast, 1.89 µM; in the test with MALME-3M melanoma, 4.56 µM. The TGI with TK-10 renal is 5.99 µM; in the test with K-562 leukemia it was over 20.6 µM; in the test on OVCAR-3 ovarian, 17.4 µM; in the test on NCI-H23 lung it was over 35.4 µM; with SNB-75 CNS, over 100 µM; in the test on SF-539 CNS it was 11.8 µM. Besides, the TGI in the test on MCF7 breast was over 21.7 µM; in the test with MALME-3M melanoma, 12.5 µM.
Regarding `C[C@@H]1O[C@@H](O[C@H]2CC[C@@]3(C)[C@H](CCC4[C@@H]3C(O)C[C@]3(C)[C@@H](c5ccc(=O)oc5)CC[C@]43O)C2)[C@H](O)[C@H](O)[C@H]1O` (stereo partly drawn), the GI50 with TK-10 renal is under 0.00325 µM; in the test on K-562 leukemia it was 0.00984 µM; in the test on PC-3 prostate, 0.00462 µM; with OVCAR-3 ovarian, 0.00431 µM; in the test on NCI-H23 lung it was under 0.00325 µM; in the test with SNB-75 CNS, 0.0047 µM. Besides, the GI50 with HCT-116 colon was under 0.00325 µM; in the test with SF-539 CNS it was 0.00421 µM; with MCF7 breast, 0.00828 µM; in the test on MALME-3M melanoma, 0.00659 µM. In addition, the TGI in the test with TK-10 renal came to 0.00555 µM; with K-562 leukemia, 0.879 µM; in the test with PC-3 prostate, 0.0296 µM; in the test on OVCAR-3 ovarian, 0.00597 µM; with NCI-H23 lung it was 0.00672 µM; in the test on SNB-75 CNS, 0.0107 µM. Besides, the TGI with HCT-116 colon is 0.00544 µM; with SF-539 CNS, 0.00897 µM; in the test with MCF7 breast, 0.0659 µM; in the test with MALME-3M melanoma, 0.0166 µM.
Consider `COc1ccc2c(c1)OC1=C(C(=O)OC1)C2c1cc(OC)c2c(c1)OCO2` (stereo not drawn), for which the GI50 with TK-10 renal was 0.268 µM; in the test on K-562 leukemia, 0.033 µM; with PC-3 prostate it was 0.0403 µM; in the test on OVCAR-3 ovarian it was 0.0214 µM; in the test with NCI-H23 lung, 0.0441 µM; in the test with SNB-75 CNS it was 0.0297 µM. For the same molecule, the GI50 in the test with HCT-116 colon is 0.0366 µM; in the test on SF-539 CNS, 0.0333 µM; in the test with MCF7 breast it was 0.0342 µM; in the test on MALME-3M melanoma it was over 100 µM. Besides, the TGI was over 100 µM in the test with TK-10 renal; over 100 µM with K-562 leukemia; over 100 µM in the test with PC-3 prostate; 0.0458 µM with OVCAR-3 ovarian; over 100 µM in the test on NCI-H23 lung; over 100 µM in the test with SNB-75 CNS. Further, the TGI in the test on HCT-116 colon was 7.16 µM; in the test on SF-539 CNS it was over 100 µM; with MCF7 breast, over 100 µM; with MALME-3M melanoma, over 100 µM.
Take `COc1cc(/C=C/[N+](=O)[O-])cc(Br)c1OC`: the GI50 is 3.52 µM in the test with TK-10 renal; 2.21 µM in the test on K-562 leukemia; 3.5 µM in the test on PC-3 prostate; 3.23 µM with OVCAR-3 ovarian; 2.06 µM in the test with NCI-H23 lung; 1.85 µM with SNB-75 CNS. Besides, the GI50 was 1.78 µM in the test on HCT-116 colon, 2.49 µM in the test with SF-539 CNS, 1.93 µM in the test with MCF7 breast and 2.61 µM in the test on MALME-3M melanoma. The TGI is 11.5 µM in the test with TK-10 renal; over 100 µM with K-562 leukemia; 13.2 µM in the test with PC-3 prostate; 10.2 µM in the test with OVCAR-3 ovarian; 5.28 µM in the test with NCI-H23 lung; 5 µM in the test on SNB-75 CNS. The TGI was determined as 3.22 µM in the test on HCT-116 colon, 6.62 µM with SF-539 CNS, 7.43 µM in the test on MCF7 breast and 8.13 µM in the test on MALME-3M melanoma.
For the molecule `O=C(Nc1cccc(Nc2ncc(Br)c(NCCc3cnc[nH]3)n2)c1)N1CCCC1`, the GI50 in the test with TK-10 renal was 3.87 µM; in the test on K-562 leukemia, 2.84 µM; with PC-3 prostate, 3.2 µM; with OVCAR-3 ovarian, 4.62 µM; in the test with NCI-H23 lung, 2.98 µM; in the test on SNB-75 CNS, 1.28 µM. For the same molecule, the GI50 was 1.56 µM in the test on HCT-116 colon, 0.897 µM in the test with SF-539 CNS, 1.19 µM in the test on MCF7 breast and 6.19 µM with MALME-3M melanoma. Also, the TGI was 20 µM in the test with TK-10 renal; over 64.9 µM with K-562 leukemia; 45.6 µM in the test with PC-3 prostate; 24.3 µM in the test on OVCAR-3 ovarian; 21.3 µM in the test on NCI-H23 lung; 4.96 µM in the test on SNB-75 CNS. The TGI is over 60 µM in the test with HCT-116 colon, 9.17 µM with SF-539 CNS, 17.7 µM with MCF7 breast and 20 µM with MALME-3M melanoma.
